Data: patent US11033641B2, “Radiolabelled mGluR2/3 pet ligands” (Janssen Pharmaceutica NV, priority 2015, dated 2021)

Assay: Ex-vivo biodistribution in SD rats
Set-up: species or system Sprague Dawley rats
Procedure: Sprague-Dawley rats obtained from Harlan (the Netherlands), were housed in groups of four to six per cage until treatment. They were kept at a constant temperature of 21° C. and at a 12-h light/dark cycle, in which lights were switched on at 8:00 a.m. Animals had unrestricted access to food (Teklad Global 16% Protein Rodent Diet, Harlan, Madison, Wis., USA) and water. All animal experiments were performed in compliance with Belgium laws on animal experimentation and after approval by the local animal ethics committee.
The biodistribution of [^18F]-1 was determined at 2, 10, 30 and 60 min, after injection in Sprague Dawley (SD) rats (n=3 per time point) while for [^18F]-2 the 30 min time point was not performed. Rats were injected intravenously with 0.7-1.1 MBq via a tail vein and euthanized at the time points indicated above, under isoflurane anesthesia. All tissues were dissected, weighed and counted for radioactivity in a gamma counter.
The biodistribution of [^18F]-1 was determined at 2, 10, 30 and 60 min, after injection in Sprague Dawley rats (n=3 per time point). Rats were injected intravenously with 0.7-1.1 MBq via a tail vein and euthanized at the time points indicated above, under isoflurane anesthesia. All tissues were dissected, weighed and counted for radioactivity in a gamma counter.

Question: With C[C@H]1CN(c2ccc(C(F)(F)F)cc2)C(=O)c2c(C#Cc3cnc(N)cc3C[18F])cnn21 [Compound 1] as the compound, how does the “Biodistribution, mean SUV” value (blood, 2 min after i.v. injection) read?
Answer: Its value is 1.12 SUV.

Question: And the “Biodistribution, mean SUV” value (blood, 10 min after i.v. injection)?
Answer: The value was 0.74 SUV.

Question: What about the “Biodistribution, mean SUV” value (blood, 30 min after i.v. injection) of the same compound?
Answer: The value was 0.47 SUV.

Question: What about the “Biodistribution, mean SUV” value (blood, 60 min after i.v. injection) of the same compound?
Answer: The value was 0.50 SUV.

Question: And the “Biodistribution, mean SUV” value (bone, 2 min after i.v. injection)?
Answer: Its value is 0.39 SUV.

Question: What about the “Biodistribution, mean SUV” value (bone, 10 min after i.v. injection) of the same compound?
Answer: The value was 0.34 SUV.

Question: What about the “Biodistribution, mean SUV” value (bone, 30 min after i.v. injection) of the same compound?
Answer: Its value is 0.48 SUV.

Question: And the “Biodistribution, mean SUV” value (bone, 60 min after i.v. injection)?
Answer: The value was 0.58 SUV.

Question: And the “Biodistribution, mean SUV” value (cerebellum, 2 min after i.v. injection)?
Answer: Its value is 2.25 SUV.

Question: And the “Biodistribution, mean SUV” value (cerebellum, 10 min after i.v. injection)?
Answer: The value was 3.17 SUV.

Question: What about the “Biodistribution, mean SUV” value (cerebellum, 30 min after i.v. injection) of the same compound?
Answer: Its value is 3.93 SUV.

Question: What about the “Biodistribution, mean SUV” value (cerebellum, 60 min after i.v. injection) of the same compound?
Answer: Its value is 4.41 SUV.

Question: And the “Biodistribution, mean SUV” value (cerebrum + cerebellum, 2 min after i.v. injection)?
Answer: The value was 2.03 SUV.

Question: What about the “Biodistribution, mean SUV” value (cerebrum + cerebellum, 10 min after i.v. injection) of the same compound?
Answer: The value was 3.11 SUV.

Question: And the “Biodistribution, mean SUV” value (cerebrum + cerebellum, 30 min after i.v. injection)?
Answer: Its value is 3.98 SUV.

Question: What about the “Biodistribution, mean SUV” value (cerebrum + cerebellum, 60 min after i.v. injection) of the same compound?
Answer: The value was 4.95 SUV.

Question: What about the “Biodistribution, mean SUV” value (cortex, 2 min after i.v. injection) of the same compound?
Answer: The value was 3.50 SUV.

Question: What about the “Biodistribution, mean SUV” value (cortex, 10 min after i.v. injection) of the same compound?
Answer: The value was 8.37 SUV.

Question: What about the “Biodistribution, mean SUV” value (cortex, 30 min after i.v. injection) of the same compound?
Answer: The value was 6.96 SUV.

Question: What about the “Biodistribution, mean SUV” value (cortex, 60 min after i.v. injection) of the same compound?
Answer: The value was 8.11 SUV.

Question: What about the “Brain uptake, in words” value (ex-vivo biodistribution) of the same compound?
Answer: The value was “very high”.

Question: What about the “Defluorination judged from bone uptake over time” value (ex-vivo biodistribution) of the same compound?
Answer: The value was “some defluorination”.

Question: And the “Peripheral uptake, in words” value (ex-vivo biodistribution)?
Answer: The value was “highest uptake in the liver”.

Question: What about the “Biodistribution, mean SUV” value (heart, 2 min after i.v. injection) of the same compound?
Answer: The value was 3.54 SUV.

Question: And the “Biodistribution, mean SUV” value (heart, 10 min after i.v. injection)?
Answer: The value was 2.11 SUV.

Question: What about the “Biodistribution, mean SUV” value (heart, 30 min after i.v. injection) of the same compound?
Answer: Its value is 1.41 SUV.

Question: And the “Biodistribution, mean SUV” value (heart, 60 min after i.v. injection)?
Answer: The value was 1.30 SUV.

Question: And the “Biodistribution, mean SUV” value (hippocampus, 2 min after i.v. injection)?
Answer: Its value is 1.53 SUV.

Question: And the “Biodistribution, mean SUV” value (hippocampus, 10 min after i.v. injection)?
Answer: Its value is 2.49 SUV.

Question: What about the “Biodistribution, mean SUV” value (hippocampus, 30 min after i.v. injection) of the same compound?
Answer: The value was 3.10 SUV.

Question: What about the “Biodistribution, mean SUV” value (hippocampus, 60 min after i.v. injection) of the same compound?
Answer: The value was 3.90 SUV.

Question: What about the “Biodistribution, mean SUV” value (kidneys, 2 min after i.v. injection) of the same compound?
Answer: Its value is 4.97 SUV.

Question: And the “Biodistribution, mean SUV” value (kidneys, 10 min after i.v. injection)?
Answer: Its value is 2.58 SUV.

Question: What about the “Biodistribution, mean SUV” value (kidneys, 30 min after i.v. injection) of the same compound?
Answer: The value was 2.08 SUV.

Question: And the “Biodistribution, mean SUV” value (kidneys, 60 min after i.v. injection)?
Answer: The value was 2.16 SUV.

Question: And the “Biodistribution, mean SUV” value (liver, 2 min after i.v. injection)?
Answer: Its value is 9.74 SUV.

Question: And the “Biodistribution, mean SUV” value (liver, 10 min after i.v. injection)?
Answer: The value was 6.38 SUV.

Question: What about the “Biodistribution, mean SUV” value (liver, 30 min after i.v. injection) of the same compound?
Answer: Its value is 4.66 SUV.

Question: What about the “Biodistribution, mean SUV” value (liver, 60 min after i.v. injection) of the same compound?
Answer: Its value is 4.75 SUV.

Question: And the “Biodistribution, mean SUV” value (lungs, 2 min after i.v. injection)?
Answer: The value was 2.93 SUV.

Question: And the “Biodistribution, mean SUV” value (lungs, 10 min after i.v. injection)?
Answer: The value was 1.78 SUV.

Question: And the “Biodistribution, mean SUV” value (lungs, 30 min after i.v. injection)?
Answer: Its value is 1.63 SUV.

Question: And the “Biodistribution, mean SUV” value (lungs, 60 min after i.v. injection)?
Answer: Its value is 1.92 SUV.

Question: And the “Biodistribution, mean SUV” value (muscle, 2 min after i.v. injection)?
Answer: Its value is 0.50 SUV.

Question: And the “Biodistribution, mean SUV” value (muscle, 10 min after i.v. injection)?
Answer: Its value is 0.83 SUV.

Question: What about the “Biodistribution, mean SUV” value (muscle, 30 min after i.v. injection) of the same compound?
Answer: The value was 0.75 SUV.

Question: What about the “Biodistribution, mean SUV” value (muscle, 60 min after i.v. injection) of the same compound?
Answer: Its value is 0.79 SUV.

Question: And the “Biodistribution, mean SUV” value (pancreas, 2 min after i.v. injection)?
Answer: Its value is 4.30 SUV.

Question: What about the “Biodistribution, mean SUV” value (pancreas, 10 min after i.v. injection) of the same compound?
Answer: The value was 2.36 SUV.

Question: And the “Biodistribution, mean SUV” value (pancreas, 30 min after i.v. injection)?
Answer: The value was 2.06 SUV.

Question: What about the “Biodistribution, mean SUV” value (pancreas, 60 min after i.v. injection) of the same compound?
Answer: Its value is 2.33 SUV.

Question: And the “Biodistribution, mean SUV” value (pons, 2 min after i.v. injection)?
Answer: The value was 1.53 SUV.

Question: What about the “Biodistribution, mean SUV” value (pons, 10 min after i.v. injection) of the same compound?
Answer: Its value is 1.73 SUV.

Question: What about the “Biodistribution, mean SUV” value (pons, 30 min after i.v. injection) of the same compound?
Answer: The value was 1.76 SUV.

Question: What about the “Biodistribution, mean SUV” value (pons, 60 min after i.v. injection) of the same compound?
Answer: The value was 1.85 SUV.

Question: What about the “Biodistribution, mean SUV” value (rest of cerebrum, 2 min after i.v. injection) of the same compound?
Answer: The value was 2.06 SUV.

Question: What about the “Biodistribution, mean SUV” value (rest of cerebrum, 10 min after i.v. injection) of the same compound?
Answer: The value was 3.34 SUV.

Question: What about the “Biodistribution, mean SUV” value (rest of cerebrum, 30 min after i.v. injection) of the same compound?
Answer: The value was 4.37 SUV.

Question: And the “Biodistribution, mean SUV” value (rest of cerebrum, 60 min after i.v. injection)?
Answer: Its value is 5.52 SUV.

Question: What about the “Biodistribution, mean SUV” value (spleen, 2 min after i.v. injection) of the same compound?
Answer: Its value is 2.81 SUV.

Question: And the “Biodistribution, mean SUV” value (spleen, 10 min after i.v. injection)?
Answer: The value was 1.68 SUV.

Question: What about the “Biodistribution, mean SUV” value (spleen, 30 min after i.v. injection) of the same compound?
Answer: The value was 1.06 SUV.

Question: And the “Biodistribution, mean SUV” value (spleen, 60 min after i.v. injection)?
Answer: The value was 1.02 SUV.

Question: And the “Biodistribution, mean SUV” value (striatum, 2 min after i.v. injection)?
Answer: Its value is 1.98 SUV.

Question: What about the “Biodistribution, mean SUV” value (striatum, 10 min after i.v. injection) of the same compound?
Answer: Its value is 3.46 SUV.

Question: And the “Biodistribution, mean SUV” value (striatum, 30 min after i.v. injection)?
Answer: The value was 4.15 SUV.

Question: What about the “Biodistribution, mean SUV” value (striatum, 60 min after i.v. injection) of the same compound?
Answer: Its value is 7.12 SUV.

Question: And the “Biodistribution, mean SUV” value (whole cerebrum, 2 min after i.v. injection)?
Answer: Its value is 1.96 SUV.

Question: And the “Biodistribution, mean SUV” value (whole cerebrum, 10 min after i.v. injection)?
Answer: Its value is 3.05 SUV.

Question: And the “Biodistribution, mean SUV” value (whole cerebrum, 30 min after i.v. injection)?
Answer: Its value is 3.94 SUV.

Question: What about the “Biodistribution, mean SUV” value (whole cerebrum, 60 min after i.v. injection) of the same compound?
Answer: Its value is 5.00 SUV.
